Like-named read-outs stand apart in the source and are kept apart here.
Key:
[1] = Cytotoxicity, MTT assay in CEM-T4 cells; conditions: human
Method: (§1) Evaluation of anti-HIV activity consisted of measurements of p24 antigen using the Genscreen ULTRA HIV Ag-Ab Kit. […] We included betulin and betulinic acid in our studies in order to broaden the structure-activity study. BVM, the first HIV-1 maturation inhibitor, was applied as a reference compound.
For the determination of compounds cytotoxicity, CEM-T4 cells were obtained from the NIH AIDS Reagent Program (NIH, US) and were cultured in RPMI supplemented with 10% FCS (Biochrom) and antibiotics at 37 °C in 5% CO2 on 96-well culture plates. […] Cultures in a neat medium (RPMI, 10% FCS) were used as a control. Viability of cells was determined after 7 days using the MTT assay in which 10 μL of MTT solution (5 mg/mL) was added to each culture plate well, and cultures were incubated for 3 h at a temperature of 37 °C. After the centrifugation, the supernatant was removed, and DMSO was added for lysis of the cells and to dissolve crystals of formazan. Color intensity was measured with a plate reader at 560 nm. Cell viability was determined by the Equation (1):Viability (%) = (OD of samples enriched in test drugs/OD of control samples) × 100(1) where OD means optical density.
Based on the calculations, a graph was created regarding the relationship between the concentration of the compound and the viability from which CC50 was established.

HIV-1 [2] = test: microbe, parasite or virus in culture; conditions: for TI (selectivity index): HIV-infected CEM-T4 cell line
Method: as §1
CEM-T4 cells were preincubated (culture plates with 96 flat bottom wells) for 24 h under standard conditions (37 °C, 5% CO2) and in a standard medium (RPMI, FCS 10%) enriched with tested compounds in the concentration range from 0.02 µM to 10 µM. In each well, 20,000 cells were suspended in the solution of a tested compound (200 μL). For each concentration, cultures were run in triplicate. A wild-type HIV-1 was isolated from the HIV-positive patient in the Laboratory of Virology of the National Medicines Institute (Warsaw, Poland) and was used as a reference. A culture of CEM-T4 lines in a standard neat medium (RPMU, FCS 10%) was used to produce viruses. After 24 h of incubation in a medium enriched with a tested compound, cells were inoculated with a known amount of HIV, and after 7 days, HIV replication was evaluated through the measurement of secreted viral protein p24 carried out with the enzyme-linked immunosorbent assay (ELISA) technique. For each tested compound and for each concentration, the measurements of p24 antigen were done in triplicate using the Genscreen ULTRA HIV Ag-Ab Kit (Biorad, Warszawa, Poland) and following manufacturer’s instructions. The absorbance of the sample was determined as an OD measured at 650 nm. HIV replication capacity was calculated using the Equation (2):Virus replication (%) = (OD of drug-enriched samples/OD of control samples) × 100(2)
The results were presented by a graph showing the ratio of HIV replication to the concentration of the tested preparation.

HIV = conditions: cited from earlier work
HIV-1 [3] = test system: HIV-1; parameters: method as in PMID 8176401; conditions: inhibiting HIV-1 replication; cited from earlier work
[4] = Human immunodeficiency virus 1, CEM-T4, 168 h, wild-type HIV-1 in CEM-T4 cells, p24 antigen, 7 days, 50% inhibition of replication
[5] = wild-type HIV-1 in CEM-T4 cells, p24 antigen, 7 days, 50% inhibition of replication

Compound	CC50 at 7 days [1] [µM]	TI (selectivity index) (HIV-1 [2])	IC50 (HIV-1 [2]; [4]) [µM]	further results
CCOP(=O)(C=C(C)C1CCC2(C(=O)O)CCC3(C)C(CCC4C5(C)CCC(OC(=O)CC(C)(C)CC(=O)O)C(C)(C)C5CCC43C)C12)OCC (stereo not shown) [Compound 13b]	> 68	>8	8.8 ± 1.7	
3,28-di(dimethylglutaryl)betulin				EC50 (HIV): 0.00066 µM
C=C(C)[C@@H]1CC[C@]2(CO)CC[C@]3(C)[C@H](CC[C@@H]4[C@@]5(C)CC[C@H](O)C(C)(C)[C@@H]5CC[C@]43C)[C@@H]12 [betulin, lup-20(29)-ene-3β,28-diol, reference compound]	46 ± 3.01		> 10	
C=C(COP(=O)(OCC)OCC)C1CCC2(C(=O)O)CCC3(C)C(CCC4C5(C)CCC(OC(=O)CCC(C)(C)C(=O)O)C(C)(C)C5CCC43C)C12 (stereo not shown) [Compound 12c]	64 ± 1.84	16	4 ± 1.65	
C=C(CP(=O)(OCC)OCC)C1CCC2(C(=O)O)CCC3(C)C(CCC4C5(C)CCC(OC(=O)CC(C)(C)CC(=O)O)C(C)(C)C5CCC43C)C12 (stereo not shown) [Compound 14b]	> 68	>75	0.9 ± 0.12	
CCOP(=O)(C=C(C)C1CCC2(C(=O)O)CCC3(C)C(CCC4C5(C)CCC(O)C(C)(C)C5CCC43C)C12)OCC (stereo not shown) [Compound 10, 29-Diethoxyphosphorylbetulinic acid]	80 ± 1.3	<8	> 10	
CCOP(=O)(C=C(C)C1CCC2(C(=O)O)CCC3(C)C(CCC4C5(C)CCC(OC(=O)CCC(C)(C)C(=O)O)C(C)(C)C5CCC43C)C12)OCC (stereo not shown) [Compound 13c]	> 68		> 10	
C=C(CP(=O)(OCC)OCC)C1CCC2(C(=O)O)CCC3(C)C(CCC4C5(C)CCC(O)C(C)(C)C5CCC43C)C12 (stereo not shown) [Compound 11, 30-Diethoxyphosphorylbetulinic Acid]	> 42		> 10	
C=C(CP(=O)(OCC)OCC)C1CCC2(C(=O)O)CCC3(C)C(CCC4C5(C)CCC(OC(=O)CC(C)(C)C(=O)O)C(C)(C)C5CCC43C)C12 (stereo not shown) [Compound 14a]	> 68			
CCOP(=O)(C=C(C)C1CCC2(C(=O)O)CCC3(C)C(CCC4C5(C)CCC(OC(=O)CC(C)(C)C(=O)O)C(C)(C)C5CCC43C)C12)OCC (stereo not shown) [Compound 13a]	> 68	>35	< 2	IC50 (HIV-1 [2]; [5]): 2 ± 0.72 µM
C=C(COP(=O)(OCC)OCC)C1CCC2(C(=O)O)CCC3(C)C(CCC4C5(C)CCC(OC(=O)CC(C)(C)C(=O)O)C(C)(C)C5CCC43C)C12 (stereo not shown) [Compound 12a]	52 ± 1.07	52	< 2	IC50 (HIV-1 [2]; [5]): 1 ± 0.33 µM
C=C(C)[C@@H]1CC[C@]2(C(=O)O)CC[C@]3(C)[C@H](CC[C@@H]4[C@@]5(C)CC[C@H](OC(=O)CC(C)(C)C(=O)O)C(C)(C)[C@@H]5CC[C@]43C)[C@@H]12 [bevirimat, 3-O-(3′,3′-dimethylsuccinyl) betulinic acid, reference compound]				CC50 at 7 days ([1]; CEM-T4 cells): 29 ± 2.43 µM; EC50 (HIV; literature reports): 0.00035 µM; IC50 (HIV-1 [2]; Human immunodeficiency virus 1, CEM-T4, 168 h): 0.03 ± 0.009 µM
C=C(CP(=O)(OCC)OCC)C1CCC2(C(=O)O)CCC3(C)C(CCC4C5(C)CCC(OC(=O)CCC(C)(C)C(=O)O)C(C)(C)C5CCC43C)C12 (stereo not shown) [Compound 14c]	> 68	>68	1 ± 0.17	
C=C(C)C1CCC2(C(=O)O)CCC3(C)C(CCC4C5(C)CCC(OC(=O)CC(C)(C)CC(=O)O)C(C)(C)C5CCC43C)C12 (stereo not shown) [3′,3′-dimethylglutarylbetulinic acid]				EC50 (HIV; literature reports): 0.0023 µM
C=C(COP(=O)(OCC)OCC)C1CCC2(C(=O)O)CCC3(C)C(CCC4C5(C)CCC(O)C(C)(C)C5CCC43C)C12 (stereo not shown) [Compound 9]	18 ± 1.79		> 10	
C=C(COP(=O)(OCC)OCC)C1CCC2(C(=O)O)CCC3(C)C(CCC4C5(C)CCC(OC(=O)CC(C)(C)CC(=O)O)C(C)(C)C5CCC43C)C12 (stereo not shown) [Compound 12b]	28 ± 1.64	47	0.6 ± 0.04	
C=C(C)[C@@H]1CC[C@]2(C(=O)O)CC[C@]3(C)[C@H](CC[C@@H]4[C@@]5(C)CC[C@H](O)C(C)(C)[C@@H]5CC[C@]43C)[C@@H]12 [betulinic acid, 3β-hydroxy-20(29)-lupaene-28-oic acid, reference compound]	5 ± 2.44		> 10	EC50 (HIV-1 [3]): 1.6 µM

Source: PMC6829466 (International Journal of Molecular Sciences, 2019)
